Measured values: ChEMBL document CHEMBL4007392, “Modulating Mineralocorticoid Receptor with Non-steroidal Antagonists. New Opportunities for the Development of Potent and Selective Ligands without Off-Target Side Effects” (J Med Chem, 2017)

What was measured:
Androgen receptor = target: T1, Androgen receptor (Homo sapiens, UniProt P10275); assay: Antagonist activity at GAL4-fused human AR LBD (667 to 919 residues) expressed in CHO-K1 cells assessed as inhibition of dihydrotestosterone-induced transactivation activity after 5 to 6 hrs by luciferase reporter gene assay; type: cell-based
T1 sequence (P10275 whole entry): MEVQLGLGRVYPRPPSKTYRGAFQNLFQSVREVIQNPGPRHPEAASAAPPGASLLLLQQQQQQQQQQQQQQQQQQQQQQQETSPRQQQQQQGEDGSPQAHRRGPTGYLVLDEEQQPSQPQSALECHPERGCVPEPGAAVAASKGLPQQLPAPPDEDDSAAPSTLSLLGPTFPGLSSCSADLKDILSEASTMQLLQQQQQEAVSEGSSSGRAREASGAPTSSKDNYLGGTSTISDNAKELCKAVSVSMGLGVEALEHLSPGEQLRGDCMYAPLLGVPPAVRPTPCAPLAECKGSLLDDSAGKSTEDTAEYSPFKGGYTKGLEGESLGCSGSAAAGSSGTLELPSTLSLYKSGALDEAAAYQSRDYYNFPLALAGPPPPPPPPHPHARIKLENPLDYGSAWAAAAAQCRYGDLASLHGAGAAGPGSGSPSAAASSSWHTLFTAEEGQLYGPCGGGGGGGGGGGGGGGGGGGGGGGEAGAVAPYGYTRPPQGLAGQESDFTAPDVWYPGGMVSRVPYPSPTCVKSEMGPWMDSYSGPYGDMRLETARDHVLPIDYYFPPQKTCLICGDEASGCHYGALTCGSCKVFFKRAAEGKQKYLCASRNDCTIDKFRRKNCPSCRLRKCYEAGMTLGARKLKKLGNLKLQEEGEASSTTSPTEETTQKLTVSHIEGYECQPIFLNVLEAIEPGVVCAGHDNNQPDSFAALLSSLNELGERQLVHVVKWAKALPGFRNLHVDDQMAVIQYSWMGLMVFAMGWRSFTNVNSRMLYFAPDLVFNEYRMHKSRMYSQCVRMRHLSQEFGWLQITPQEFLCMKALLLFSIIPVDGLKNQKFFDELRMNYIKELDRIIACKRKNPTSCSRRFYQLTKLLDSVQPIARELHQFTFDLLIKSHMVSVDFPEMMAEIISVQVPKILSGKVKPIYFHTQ

[1] = target: T2, Mineralocorticoid receptor (Homo sapiens, UniProt P08235); assay: Antagonist activity at Gal4-fused human MR LBD expressed in HEK293T cells assessed as inhibition of aldosterone-induced transactivation activity after 16 hrs by luciferase reporter gene assay; type: cell-based, HEK-293T
T2 sequence (P08235 whole entry): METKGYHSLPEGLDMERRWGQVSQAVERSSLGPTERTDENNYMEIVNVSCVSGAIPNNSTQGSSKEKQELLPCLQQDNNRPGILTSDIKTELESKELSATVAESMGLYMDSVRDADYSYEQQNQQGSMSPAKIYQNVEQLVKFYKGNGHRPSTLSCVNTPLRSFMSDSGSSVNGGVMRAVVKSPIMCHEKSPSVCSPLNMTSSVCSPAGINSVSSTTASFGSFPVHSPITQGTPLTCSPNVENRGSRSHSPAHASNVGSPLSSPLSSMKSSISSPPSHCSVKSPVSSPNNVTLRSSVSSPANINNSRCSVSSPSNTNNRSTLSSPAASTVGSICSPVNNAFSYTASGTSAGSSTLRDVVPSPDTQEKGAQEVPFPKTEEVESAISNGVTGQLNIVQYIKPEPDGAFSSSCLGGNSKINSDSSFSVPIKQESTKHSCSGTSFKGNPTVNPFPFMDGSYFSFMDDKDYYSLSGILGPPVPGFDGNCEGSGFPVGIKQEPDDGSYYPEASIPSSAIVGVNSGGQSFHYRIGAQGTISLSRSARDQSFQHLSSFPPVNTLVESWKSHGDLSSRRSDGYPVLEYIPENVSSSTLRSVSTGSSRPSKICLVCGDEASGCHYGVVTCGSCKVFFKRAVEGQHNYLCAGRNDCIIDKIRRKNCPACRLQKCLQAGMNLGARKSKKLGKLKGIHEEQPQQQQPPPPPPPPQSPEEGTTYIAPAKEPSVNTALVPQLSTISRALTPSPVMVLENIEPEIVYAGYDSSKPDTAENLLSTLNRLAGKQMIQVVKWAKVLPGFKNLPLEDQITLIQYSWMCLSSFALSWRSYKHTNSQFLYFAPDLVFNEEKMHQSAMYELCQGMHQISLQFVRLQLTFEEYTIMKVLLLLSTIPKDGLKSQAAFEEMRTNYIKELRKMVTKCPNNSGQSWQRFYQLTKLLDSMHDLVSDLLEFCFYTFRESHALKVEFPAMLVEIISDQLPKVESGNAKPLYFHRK

Glucocorticoid receptor = target: T3, Glucocorticoid receptor (Homo sapiens, UniProt P04150); assay: Antagonist activity at GAL4-fused human GR LBD (443 to 777 residues) expressed in CHO-K1 cells assessed as inhibition of dexamethasone-induced transactivation activity after 5 to 6 hrs by luciferase reporter gene assay; type: cell-based
T3 sequence (P04150 whole entry): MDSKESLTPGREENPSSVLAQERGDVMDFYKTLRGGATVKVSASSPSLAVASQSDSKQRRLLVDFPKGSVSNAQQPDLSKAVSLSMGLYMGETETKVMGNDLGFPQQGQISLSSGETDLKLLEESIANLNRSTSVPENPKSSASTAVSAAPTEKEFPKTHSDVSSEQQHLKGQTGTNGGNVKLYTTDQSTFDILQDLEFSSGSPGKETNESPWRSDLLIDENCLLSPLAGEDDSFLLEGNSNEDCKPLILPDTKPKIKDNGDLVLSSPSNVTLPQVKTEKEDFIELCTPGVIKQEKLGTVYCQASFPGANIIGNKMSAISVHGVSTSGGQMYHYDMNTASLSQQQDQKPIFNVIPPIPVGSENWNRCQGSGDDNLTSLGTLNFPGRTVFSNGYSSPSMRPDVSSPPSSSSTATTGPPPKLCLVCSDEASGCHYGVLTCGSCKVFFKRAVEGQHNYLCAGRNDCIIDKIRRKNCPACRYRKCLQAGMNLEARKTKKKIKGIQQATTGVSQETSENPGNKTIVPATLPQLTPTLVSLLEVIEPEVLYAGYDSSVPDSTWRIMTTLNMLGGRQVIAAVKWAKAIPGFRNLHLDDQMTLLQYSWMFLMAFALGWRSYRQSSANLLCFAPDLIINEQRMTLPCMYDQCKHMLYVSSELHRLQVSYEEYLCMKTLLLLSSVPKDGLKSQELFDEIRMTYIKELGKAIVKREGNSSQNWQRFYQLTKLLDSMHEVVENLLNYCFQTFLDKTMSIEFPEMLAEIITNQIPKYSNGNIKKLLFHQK

Homo sapiens = species on record: Homo sapiens; assay: Induction of improvement in urinary albumin-creatinine ratio in patient with diabetic nephropathy receiving ACE inhibitor or angiotensin receptor blocker at 7.5 to 20 mg/day during latter phase II trial; type: functional; parameters: scale not given: the % may be the effect or the level left

Question: What does the source list for `CCOc1ncc(C)c2c1[C@H](c1ccc(C#N)cc1OC)C(C(N)=O)=C(C)N2` [FINERENONE]?
Answer: IC50 (Androgen receptor): ≥ 10 µM; IC50 [1]: 0.058 µM; IC50 (Glucocorticoid receptor): ≥ 10 µM; Activity (Homo sapiens): 21 - 38%
